Numbers after ± are expanded uncertainties.
Assay: refractive index (Na D-line) (dimensionless); xn = mol fraction of the nth substance listed
Settings: 100.8 kPa, Liquid, Standard Abbe refractometry

In the case of `OCc1ccccc1` [benzenemethanol] + CC(C)O, the refractive index (298.15 K, x2 = 0) is reported as 1.53843 ± 0.00033, the refractive index (298.15 K, x2 = 0.05) is reported as 1.53277 ± 0.00033 and the refractive index (298.15 K, x2 = 0.1) is reported as 1.52684 ± 0.00033. For the same compound, the refractive index (298.15 K, x2 = 0.15) was 1.5207 ± 0.00033, the refractive index (298.15 K, x2 = 0.2) was 1.5143 ± 0.00033 and the refractive index (298.15 K, x2 = 0.25) was 1.50772 ± 0.00033. For the same compound, the refractive index (298.15 K, x2 = 0.3) was 1.50089 ± 0.00033, the refractive index (298.15 K, x2 = 0.35) was 1.49383 ± 0.00033 and the refractive index (298.15 K, x2 = 0.4) was 1.48652 ± 0.00033. For the same compound, the refractive index (298.15 K, x2 = 0.45) was 1.47899 ± 0.00033, the refractive index (298.15 K, x2 = 0.5) was 1.47118 ± 0.00033 and the refractive index (298.15 K, x2 = 0.55) was 1.4631 ± 0.00033. For the same compound, the refractive index (298.15 K, x2 = 0.6) was 1.45472 ± 0.00033, the refractive index (298.15 K, x2 = 0.65) was 1.44605 ± 0.00033 and the refractive index (298.15 K, x2 = 0.7) was 1.43707 ± 0.00033. It also gave a refractive index (298.15 K, x2 = 0.75) of 1.42774 ± 0.00033, a refractive index (298.15 K, x2 = 0.8) of 1.41804 ± 0.00033 and a refractive index (298.15 K, x2 = 0.85) of 1.40795 ± 0.00033. The refractive index (298.15 K, x2 = 0.9) was 1.39746 ± 0.00033, the refractive index (298.15 K, x2 = 0.95) was 1.38648 ± 0.00033 and the refractive index (308.15 K, x2 = 0) was 1.53421 ± 0.00033. It also gave a refractive index (308.15 K, x2 = 0.05) of 1.52858 ± 0.00033, a refractive index (308.15 K, x2 = 0.1) of 1.52268 ± 0.00033 and a refractive index (308.15 K, x2 = 0.15) of 1.51654 ± 0.00033. It also gave a refractive index (308.15 K, x2 = 0.2) of 1.51019 ± 0.00033, a refractive index (308.15 K, x2 = 0.25) of 1.50359 ± 0.00033 and a refractive index (308.15 K, x2 = 0.3) of 1.49674 ± 0.00033. For the same compound, the refractive index (308.15 K, x2 = 0.35) was 1.48966 ± 0.00033, the refractive index (308.15 K, x2 = 0.4) was 1.48234 ± 0.00033 and the refractive index (308.15 K, x2 = 0.45) was 1.4748 ± 0.00033. The refractive index (308.15 K, x2 = 0.5) was 1.46698 ± 0.00034, the refractive index (308.15 K, x2 = 0.55) was 1.45889 ± 0.00033 and the refractive index (308.15 K, x2 = 0.6) was 1.4505 ± 0.00033. The refractive index (308.15 K, x2 = 0.65) was 1.44182 ± 0.00033, the refractive index (308.15 K, x2 = 0.7) was 1.43283 ± 0.00033 and the refractive index (308.15 K, x2 = 0.75) was 1.4235 ± 0.00033. The refractive index (308.15 K, x2 = 0.8) was 1.4138 ± 0.00033, the refractive index (308.15 K, x2 = 0.85) was 1.40368 ± 0.00033 and the refractive index (308.15 K, x2 = 0.9) was 1.39319 ± 0.00033. It also gave a refractive index (308.15 K, x2 = 0.95) of 1.38219 ± 0.00033, a refractive index (318.15 K, x2 = 0) of 1.52994 ± 0.00033 and a refractive index (318.15 K, x2 = 0.05) of 1.52435 ± 0.00033. For the same compound, the refractive index (318.15 K, x2 = 0.1) was 1.51849 ± 0.00033, the refractive index (318.15 K, x2 = 0.15) was 1.51233 ± 0.00033 and the refractive index (318.15 K, x2 = 0.2) was 1.50598 ± 0.00033. For the same compound, the refractive index (318.15 K, x2 = 0.25) was 1.49935 ± 0.00033, the refractive index (318.15 K, x2 = 0.3) was 1.4925 ± 0.00033 and the refractive index (318.15 K, x2 = 0.35) was 1.48542 ± 0.00033. For the same compound, the refractive index (318.15 K, x2 = 0.4) was 1.47809 ± 0.00033, the refractive index (318.15 K, x2 = 0.45) was 1.47053 ± 0.00033 and the refractive index (318.15 K, x2 = 0.5) was 1.46269 ± 0.00034. It also gave a refractive index (318.15 K, x2 = 0.55) of 1.45458 ± 0.00033, a refractive index (318.15 K, x2 = 0.6) of 1.44616 ± 0.00033 and a refractive index (318.15 K, x2 = 0.65) of 1.43746 ± 0.00033. It also gave a refractive index (318.15 K, x2 = 0.7) of 1.42848 ± 0.00033, a refractive index (318.15 K, x2 = 0.75) of 1.41916 ± 0.00033 and a refractive index (318.15 K, x2 = 0.8) of 1.40943 ± 0.00033. The refractive index (318.15 K, x2 = 0.85) was 1.39933 ± 0.00033, the refractive index (318.15 K, x2 = 0.9) was 1.38883 ± 0.00033 and the refractive index (318.15 K, x2 = 0.95) was 1.3778 ± 0.00033.

From the NIST ThermoML archive (doi:10.1021/je700140j)
